{"source": "patent US6645918B1", "about": "“N-([1,2,4]triazoloazinyl)thiophenesulfonamide compounds and their use as herbicides” (Dow AgroSciences LLC, priority 2000, dated 2003)", "key": {"[1]": {"tested_on": "morningglory (Ipomoea hederacea)", "test": "Preemergence herbicidal activity, morningglory", "assay_type": "in vivo", "details": "soil spray, visual after 3 weeks, 0 no injury, 100 complete kill or no germination", "in_short": "(§1)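 Seeded pots received a pre-emergence spray of compound diluted in aqueous Tween 155 (from an acetone/DMSO stock), highest rate 4.48 kg/ha; blank-treated pots served as controls. After 3 weeks under greenhouse lighting and temperature, plants were scored 0-100%, where 100 means total kill or failure to germinate.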"}, "[2]": {"tested_on": "pigweed (Amaranthus retroflexus)", "test": "Preemergence herbicidal activity, pigweed", "assay_type": "in vivo", "details": "soil spray, visual after 3 weeks, 0 no injury, 100 complete kill or no germination", "in_short": "as §1"}, "[3]": {"tested_on": "viola (Viola tricolor)", "test": "Postemergence herbicidal activity, viola", "assay_type": "in vivo", "details": "foliar spray, visual after 2 weeks, 0 no injury, 100 complete kill", "in_short": "(§2)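 Spray solutions in a carrier of acetone, water, isopropanol, DMSO, crop oil concentrate and Triton X-155 were applied to young plants (first–second true leaf); 1 ppm gave about 1 g/ha. Two weeks later, damage compared with untreated plants was rated from 0 to 100% kill.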"}, "[4]": {"tested_on": "barnyardgrass (Echinochloa crus-galli)", "test": "Preemergence herbicidal activity, barnyardgrass", "assay_type": "in vivo", "details": "soil spray, visual after 3 weeks, 0 no injury, 100 complete kill or no germination", "in_short": "as §1"}, "[5]": {"tested_on": "blackgrass (Alopecurus myosuroides)", "test": "Postemergence herbicidal activity, blackgrass", "assay_type": "in vivo", "details": "foliar spray, visual after 2 weeks, 0 no injury, 100 complete kill", "in_short": "as §2"}, "[6]": {"tested_on": "lambsquarters (Chenopodium album)", "test": "Postemergence herbicidal activity, lambsquarters", "assay_type": "in vivo", "details": "foliar spray, visual after 2 weeks, 0 no injury, 100 complete kill", "in_short": "as §2"}, "[7]": {"tested_on": "morningglory (Ipomoea hederacea)", "test": "Postemergence herbicidal activity, morningglory", "assay_type": "in vivo", "details": "foliar spray, visual after 2 weeks, 0 no injury, 100 complete kill", "in_short": "as §2"}, "[8]": {"tested_on": "velvetleaf (Abutilion theophrasti)", "test": "Postemergence herbicidal activity, velvetleaf", "assay_type": "in vivo", "details": "foliar spray, visual after 2 weeks, 0 no injury, 100 complete kill", "in_short": "as §2"}, "[9]": {"tested_on": "velvetleaf (Abutilion theophrasti)", "test": "Preemergence herbicidal activity, velvetleaf", "assay_type": "in vivo", "details": "soil spray, visual after 3 weeks, 0 no injury, 100 complete kill or no germination", "in_short": "as §1"}, "[10]": {"tested_on": "Rox orange sorghum (Sorghum bicolor)", "test": "Preemergence herbicidal activity, Rox orange sorghum", "assay_type": "in vivo", "details": "soil spray, visual after 3 weeks, 0 no injury, 100 complete kill or no germination", "in_short": "as §1"}, "[11]": {"tested_on": "giant foxtail (Setaria faberi)", "test": "Preemergence herbicidal activity, giant foxtail", "assay_type": "in vivo", "details": "soil spray, visual after 3 weeks, 0 no injury, 100 complete kill or no germination", "in_short": "as §1"}, "[12]": {"tested_on": "chickweed (Stellaria media)", "test": "Postemergence herbicidal activity, chickweed", "assay_type": "in vivo", "details": "foliar spray, visual after 2 weeks, 0 no injury, 100 complete kill", "in_short": "as §2"}, "[13]": {"tested_on": "cocklebur (Xanthium strumarium)", "test": "Postemergence herbicidal activity, cocklebur", "assay_type": "in vivo", "details": "foliar spray, visual after 2 weeks, 0 no injury, 100 complete kill", "in_short": "as §2"}, "[14]": {"tested_on": "giant foxtail (Setaria faberi)", "test": "Postemergence herbicidal activity, giant foxtail", "assay_type": "in vivo", "details": "foliar spray, visual after 2 weeks, 0 no injury, 100 complete kill", "in_short": "as §2"}, "[15]": {"tested_on": "wild poinsettia (Euphorbia heterophylla)", "test": "Preemergence herbicidal activity, wild poinsettia", "assay_type": "in vivo", "details": "soil spray, visual after 3 weeks, 0 no injury, 100 complete kill or no germination", "in_short": "as §1"}, "[16]": {"tested_on": "cocklebur (Xanthium strumarium)", "test": "Preemergence herbicidal activity, cocklebur", "assay_type": "in vivo", "details": "soil spray, visual after 3 weeks, 0 no injury, 100 complete kill or no germination", "in_short": "as §1"}, "[17]": {"tested_on": "Rox orange sorghum (Sorghum bicolor)", "test": "Postemergence herbicidal activity, Rox orange sorghum", "assay_type": "in vivo", "details": "foliar spray, visual after 2 weeks, 0 no injury, 100 complete kill", "in_short": "as §2"}, "[18]": {"tested_on": "wild oats (Avena fatua)", "test": "Preemergence herbicidal activity, wild oats", "assay_type": "in vivo", "details": "soil spray, visual after 3 weeks, 0 no injury, 100 complete kill or no germination", "in_short": "as §1"}, "[19]": {"tested_on": "crabgrass (Digitaria sanguinalis)", "test": "Preemergence herbicidal activity, crabgrass", "assay_type": "in vivo", "details": "soil spray, visual after 3 weeks, 0 no injury, 100 complete kill or no germination", "in_short": "as §1"}, "[20]": {"tested_on": "wild oats (Avena fatua)", "test": "Postemergence herbicidal activity, wild oats", "assay_type": "in vivo", "details": "foliar spray, visual after 2 weeks, 0 no injury, 100 complete kill", "in_short": "as §2"}, "[21]": {"tested_on": "lambsquarters (Chenopodium album)", "test": "Preemergence herbicidal activity, lambsquarters", "assay_type": "in vivo", "details": "soil spray, visual after 3 weeks, 0 no injury, 100 complete kill or no germination", "in_short": "as §1"}, "[22]": {"tested_on": "pigweed (Amaranthus retroflexus)", "test": "Postemergence herbicidal activity, pigweed", "assay_type": "in vivo", "details": "foliar spray, visual after 2 weeks, 0 no injury, 100 complete kill", "in_short": "as §2"}, "[23]": {"tested_on": "wild buckwheat (Polygonum convolvulus)", "test": "Postemergence herbicidal activity, wild buckwheat", "assay_type": "in vivo", "details": "foliar spray, visual after 2 weeks, 0 no injury, 100 complete kill", "in_short": "as §2"}, "[24]": {"tested_on": "blackgrass (Alopecurus myosuroides)", "test": "Preemergence herbicidal activity, blackgrass", "assay_type": "in vivo", "details": "soil spray, visual after 3 weeks, 0 no injury, 100 complete kill or no germination", "in_short": "as §1"}}}
{"smiles": "COc1ccsc1S(=O)(=O)Nc1nc2c(OC)cnc(OC)n2n1", "note": "[Compound 1, 3-Methoxy-N-(5,8-dimethoxy[1,2,4]triazolo[1,5-c]pyrimidin-2-yl)thiophene-2-sulfonamide]", "values": [{"measurement": "melting point", "result": "227 to 228", "unit": "°C"}, {"measurement": "IPOHE preemergence injury score 0-100", "setting": "[1]; 17.5 g/Ha", "result": 85, "unit": "%"}, {"measurement": "AMARE preemergence injury score 0-100", "setting": "[2]; 17.5 g/Ha", "result": 100, "unit": "%"}, {"measurement": "VIOTR postemergence injury score 0-100", "setting": "[3]; 3.9 ppm", "result": 70, "unit": "%"}, {"measurement": "ECHCG preemergence injury score 0-100", "setting": "[4]; 17.5 g/Ha", "result": 100, "unit": "%"}, {"measurement": "ALOMY postemergence injury score 0-100", "setting": "[5]; 3.9 ppm", "result": 95, "unit": "%"}, {"measurement": "CHEAL postemergence injury score 0-100", "setting": "[6]; 3.9 ppm", "result": 75, "unit": "%"}, {"measurement": "IPOHE postemergence injury score 0-100", "setting": "[7]; 3.9 ppm", "result": 85, "unit": "%"}, {"measurement": "ABUTH postemergence injury score 0-100", "setting": "[8]; 3.9 ppm", "result": 75, "unit": "%"}, {"measurement": "ABUTH preemergence injury score 0-100", "setting": "[9]; 17.5 g/Ha", "result": 98, "unit": "%"}, {"measurement": "SORBI preemergence injury score 0-100", "setting": "[10]; 17.5 g/Ha", "result": 100, "unit": "%"}, {"measurement": "SETFA preemergence injury score 0-100", "setting": "[11]; 17.5 g/Ha", "result": 100, "unit": "%"}, {"measurement": "STEME postemergence injury score 0-100", "setting": "[12]; 3.9 ppm", "result": 75, "unit": "%"}, {"measurement": "XANST postemergence injury score 0-100", "setting": "[13]; 3.9 ppm", "result": 50, "unit": "%"}, {"measurement": "SETFA postemergence injury score 0-100", "setting": "[14]; 3.9 ppm", "result": 100, "unit": "%"}, {"measurement": "EPHHL preemergence injury score 0-100", "setting": "[15]; 17.5 g/Ha", "result": 100, "unit": "%"}, {"measurement": "XANST preemergence injury score 0-100", "setting": "[16]; 17.5 g/Ha", "result": 70, "unit": "%"}, {"measurement": "SORBI postemergence injury score 0-100", "setting": "[17]; 3.9 ppm", "result": 98, "unit": "%"}, {"measurement": "AVEFA preemergence injury score 0-100", "setting": "[18]; 17.5 g/Ha", "result": 100, "unit": "%"}, {"measurement": "DIGSA preemergence injury score 0-100", "setting": "[19]; 17.5 g/Ha", "result": 100, "unit": "%"}, {"measurement": "AVEFA postemergence injury score 0-100", "setting": "[20]; 3.9 ppm", "result": 99, "unit": "%"}, {"measurement": "CHEAL preemergence injury score 0-100", "setting": "[21]; 17.5 g/Ha", "result": 98, "unit": "%"}, {"measurement": "AMARE postemergence injury score 0-100", "setting": "[22]; 3.9 ppm", "result": 95, "unit": "%"}, {"measurement": "POLCO postemergence injury score 0-100", "setting": "[23]; 3.9 ppm", "result": 98, "unit": "%"}, {"measurement": "ALOMY preemergence injury score 0-100", "setting": "[24]; 17.5 g/Ha", "result": 100, "unit": "%"}]}
{"smiles": "COc1csc(Cl)c1S(=O)(=O)Nc1nc2c(OC)cnc(OC)n2n1", "note": "[Compound 18]", "values": [{"measurement": "IPOHE preemergence injury score 0-100", "setting": "[1]; 4.4 g/Ha", "result": 80, "unit": "%"}, {"measurement": "AMARE preemergence injury score 0-100", "setting": "[2]; 4.4 g/Ha", "result": 95, "unit": "%"}, {"measurement": "VIOTR postemergence injury score 0-100", "setting": "[3]; 15.6 ppm", "result": 100, "unit": "%"}, {"measurement": "ECHCG preemergence injury score 0-100", "setting": "[4]; 4.4 g/Ha", "result": 100, "unit": "%"}, {"measurement": "ALOMY postemergence injury score 0-100", "setting": "[5]; 15.6 ppm", "result": 70, "unit": "%"}, {"measurement": "CHEAL postemergence injury score 0-100", "setting": "[6]; 15.6 ppm", "result": 90, "unit": "%"}, {"measurement": "IPOHE postemergence injury score 0-100", "setting": "[7]; 15.6 ppm", "result": 75, "unit": "%"}, {"measurement": "ABUTH postemergence injury score 0-100", "setting": "[8]; 15.6 ppm", "result": 85, "unit": "%"}, {"measurement": "ABUTH preemergence injury score 0-100", "setting": "[9]; 4.4 g/Ha", "result": 90, "unit": "%"}, {"measurement": "SORBI preemergence injury score 0-100", "setting": "[10]; 4.4 g/Ha", "result": 100, "unit": "%"}, {"measurement": "SETFA preemergence injury score 0-100", "setting": "[11]; 4.4 g/Ha", "result": 100, "unit": "%"}, {"measurement": "STEME postemergence injury score 0-100", "setting": "[12]; 15.6 ppm", "result": 90, "unit": "%"}, {"measurement": "XANST postemergence injury score 0-100", "setting": "[13]; 15.6 ppm", "result": 100, "unit": "%"}, {"measurement": "SETFA postemergence injury score 0-100", "setting": "[14]; 15.6 ppm", "result": 90, "unit": "%"}, {"measurement": "EPHHL preemergence injury score 0-100", "setting": "[15]; 4.4 g/Ha", "result": 90, "unit": "%"}, {"measurement": "XANST preemergence injury score 0-100", "setting": "[16]; 4.4 g/Ha", "result": 90, "unit": "%"}, {"measurement": "SORBI postemergence injury score 0-100", "setting": "[17]; 15.6 ppm", "result": 100, "unit": "%"}, {"measurement": "AVEFA preemergence injury score 0-100", "setting": "[18]; 4.4 g/Ha", "result": 80, "unit": "%"}, {"measurement": "DIGSA preemergence injury score 0-100", "setting": "[19]; 4.4 g/Ha", "result": 98, "unit": "%"}, {"measurement": "AVEFA postemergence injury score 0-100", "setting": "[20]; 15.6 ppm", "result": 95, "unit": "%"}, {"measurement": "CHEAL preemergence injury score 0-100", "setting": "[21]; 4.4 g/Ha", "result": 100, "unit": "%"}, {"measurement": "AMARE postemergence injury score 0-100", "setting": "[22]; 15.6 ppm", "result": 100, "unit": "%"}, {"measurement": "POLCO postemergence injury score 0-100", "setting": "[23]; 15.6 ppm", "result": 95, "unit": "%"}, {"measurement": "ALOMY preemergence injury score 0-100", "setting": "[24]; 4.4 g/Ha", "result": 100, "unit": "%"}]}
